This experiment relates to inducible human Hsp70. Description: Hsp70 RNA induction by quantitative PCR analysis in Ramos B cells. In kind it is cell-based. As to conditions: 500 nM compound, 6 hours; for % induction relative to Compound B: Compound B induction set to 100%; for fold induction at 0.5 µM: Homo sapiens, read-out: fold induction over DMSO. The procedure:
The ability of the compounds of the invention to induce Hsp70 RNA induction by quantitative PCR analysis was examined. Ramos B cells were treated with 500 nM each compound for 6 hours and the RNA was isolated from the cells. Quantitative PCR was performed as described below:
Details for Quantitative PCR are as follows:
500 ng of RNA from each sample was used for cDNA synthesis using iScript cDNA Synthesis Kit (Biorad, Cat #170-8891). 1 ul of cDNA mixture was used with the iQ SYBR Green Supermix (Biorad, Cat#170-8882) to perform quantitative PCR in an iCycler machine (Biorad) using standard protocols. QPCR for each sample/time point was performed in duplicate. The following primers for inducible human Hsp70 and gapdh were used: […]
Ct values were obtained from the iCycler program and used in an equation (2^−ΔΔCT) for determining the amount of target relative to gapdh expression. This compares the relative expression of Hsp70 to the corresponding levels of gapdh in each sample. Duplicate wells were averaged. The amount of N-Malonyl-bis(N′-methyl-N′thiobenzoylhydrazide) (Compound B) induction of Hsp70 was set to 100% and the percent of induction of Hsp70 by the compounds of the invention was determined relative to 100%.

On to `COP(=O)(CP(=O)(NN(C)C(=O)c1ccccc1)OC)NN(C)C(=O)c1ccccc1` (stereo not shown) [Compound 33], for which the “% induction relative to Compound B” value is reported as 0.14% and the fold induction at 0.5 µM came out at 0.35.
As to `COP(=O)(CP(=O)(NN(C)C(=S)c1ccccc1)OC)NN(C)C(=S)c1ccccc1` (stereo not shown) [Compound 30, Dimethyl N,N′-methylenebis(N′-methyl-N′(phenylcarbonothioyl)-phosphonohydrazidate)], the “% induction relative to Compound B” value is on record as 0.34% and the fold induction at 0.5 µM is 0.85.
For `CNN=C(C(=O)NN(C)C(=S)c1ccccc1)C(=O)NN(C)C(=S)c1ccccc1` [Compound 71, N′1,N′3-dimethyl-2-(2-methylhydrazono)-N′1,N′3-di(phenylcarbonothioyl)-malonohydrazide], the “% induction relative to Compound B” value is 17.59% and the fold induction at 0.5 µM worked out at 46.9.
For the molecule `CN(NC(=O)CC(=O)NN(C)/C(=N/S(C)(=O)=O)c1ccccc1)/C(=N/S(C)(=O)=O)c1ccccc1` [Compound 67, N′1,N′3-bis(methanesulfonimino(phenyl)methyl)-N′1,N′3-dimethylmalonohydrazide], the “% induction relative to Compound B” value amounted to 0.75% and the fold induction at 0.5 µM amounted to 1.87.
As to `CN(NC(=O)CS(=O)(=O)NN(C)C(=S)c1ccccc1)C(=S)c1ccccc1` [Compound 68, N′-Methyl-2-(2-methyl-2-(phenylcarbonothioyl)hydrazinyl)-2-oxo-N′-(phenylcarbonothioyl)ethanesulfonohydrazide], the “% induction relative to Compound B” value came out at 11.78% and the fold induction at 0.5 µM was 29.3.

The values above are taken from patent US9156783B2, “Compounds for treating proliferative disorders” (Synta Pharmaceuticals Corp., priority 2006, dated 2015).
